From ChEMBL document CHEMBL1140651, “N-(6,7-dichloro-2,3-dioxo-1,2,3,4-tetrahydroquinoxalin-5-yl)-N-alkylsulfonamides as peripherally restricted N-methyl-D-aspartate receptor antagonists for the treatment of pain” (Bioorg Med Chem Lett, 2007)
Converted amounts (≈) assume the structure as drawn. “And” between values parts separate entries of the source, which are not always exact repeats. Equal entries are not always repeated.

Key:
[1] = (§1) Bioavailability in Sprague-Dawley rat at 5 mg/kg, po; format: ADME, organism-based; settings: Sprague-Dawley, in vivo
Liver microsomes [2] = assay: Metabolic stability in rat liver microsome; format: ADME
[3] = target: Glutamate receptor ionotropic, NMDA 1 (Homo sapiens, UniProt Q05586); assay: Antagonist activity at human NMDA NR1 receptor; format: functional
Rattus norvegicus [4] = assay: Anticonvulsant activity in Swiss Webster mouse at 100 mg/kg by MES assay; format: functional
[5] = AUC in Sprague-Dawley rat at 5 mg/kg, po; format: ADME, organism-based; set-up: dose 5 mg/kg, route oral; settings: plasma
Liver microsomes [6] = assay: Metabolic stability in human liver microsome; format: ADME
[7] = Solubility of the compound; format: physicochemical
Caco-2 = assay: Ratio of permeability from basolateral to apical over apical to basolateral side of the Caco-2 cell membrane; format: ADME, cell-based; settings: human
[8] = Permeability from apical to basolateral side of the Caco-2 cell membrane; format: ADME, cell-based; settings: human, read-out: permeability
Rattus norvegicus [9] = assay: […] in […] at 300 mg/kg, ip by MES assay; format: functional; settings: route intraperitoneal
Rattus norvegicus [10] = assay: Analgesic activity in rat formalin pain model assessed as reduction in pain response at 50 mg/kg, ip; format: functional; set-up: scale not given: the % may be the effect or the level left; settings: route intraperitoneal
Rattus norvegicus [11] = assay: as §1; format: ADME, organism-based; settings: in vivo
Rattus norvegicus [12] = assay: Analgesic activity in rat formalin pain model assessed as reduction in pain response at 50 mg/kg, po; format: functional; set-up: scale not given: the % may be the effect or the level left

Row | Compound | bioavailability [1] | Activity (Liver microsomes [2]) | IC50 [3] | AUC [5] | Activity (Liver microsomes [6]) | solubility [7] | Ratio (Caco-2) | Papp A→B [8] | F (Rattus norvegicus [11]) | Activity (Rattus norvegicus [4]) | Activity (Rattus norvegicus [9]) | Activity (Rattus norvegicus [10]) | Activity (Rattus norvegicus [12])
1 | COc1cccc(CN(c2c(Cl)c(Cl)cc3[nH]c(=O)c(=O)[nH]c23)S(C)(=O)=O)c1 | 8% | Active | 12 nM | 152 ng·h/mL | Active | 40 µg/mL (≈ 90 µM) | 4.67 | 3.43 ×10⁻⁶ cm/s | – | – | – | – | –
2 | CS(=O)(=O)N(Cc1cccc(F)c1)c1c(Cl)c(Cl)cc2[nH]c(=O)c(=O)[nH]c12 | 10% | Active | 45 nM | 589 ng·h/mL | Active | 23 µg/mL (≈ 53.2 µM) | 4.07 | 1.75 ×10⁻⁶ cm/s | – | – | – | – | –
3 | CS(=O)(=O)N(CC1CCCO1)c1c(Cl)c(Cl)cc2[nH]c(=O)c(=O)[nH]c12 (stereo unspecified) | 31% | Active | 59 nM | 922 ng·h/mL | Active | 16 µg/mL (≈ 39.2 µM) | 7.55 | 1.52 ×10⁻⁶ cm/s | – | – | – | – | –
4 | CCOCCN(c1c(Cl)c(Cl)cc2[nH]c(=O)c(=O)[nH]c12)S(C)(=O)=O | 78% | Active | 209 nM | 2260 ng·h/mL | Active | 79 µg/mL (≈ 199 µM) | 1.38 | 10 ×10⁻⁶ cm/s | – | – | – | – | –
5 | CS(=O)(=O)N(CCC(F)(F)F)c1c(Cl)c(Cl)cc2[nH]c(=O)c(=O)[nH]c12 | – | Active | 22 nM and 11 nM and 18 nM | – | Active | 56 µg/mL (≈ 133 µM) | 15 | 0.41 ×10⁻⁶ cm/s | – | – | 0% | 40% | –
6 | CCc1cc2[nH]c(=O)c(=O)[nH]c2c(N(CCCOC)S(C)(=O)=O)c1Cl | 47% | Active | 49 nM | 632 ng·h/mL | Active | 78 µg/mL (≈ 200 µM) | – | 0.01 ×10⁻⁶ cm/s | – | – | – | – | –
7 | CS(=O)(=O)N(CC1CCCCO1)c1c(Cl)c(Cl)cc2[nH]c(=O)c(=O)[nH]c12 (stereo unspecified) | 53% | Active | 39 nM | 1490 ng·h/mL | Active | 25 µg/mL (≈ 59.2 µM) | – | < 0.01 ×10⁻⁶ cm/s | – | – | – | – | –
8 | CCOCCOCCN(c1c(Cl)c(Cl)cc2[nH]c(=O)c(=O)[nH]c12)S(C)(=O)=O | 90% | Active | 166 nM | 840 ng·h/mL | Active | 88 µg/mL (≈ 200 µM) | 12.4 | 0.97 ×10⁻⁶ cm/s | – | – | – | – | –
9 | COCCCN(c1c(Cl)c(Cl)cc2[nH]c(=O)c(=O)[nH]c12)S(C)(=O)=O | 41% | Active | – | – | Active | 79 µg/mL (≈ 199 µM) | 6.05 | 2.06 ×10⁻⁶ cm/s | 43% and 39% | – | 20% | – | –
10 | CCS(=O)(=O)N(CCC(F)(F)F)c1c(Cl)c(Cl)cc2[nH]c(=O)c(=O)[nH]c12 | 32% | Active | 109 nM and 20 nM and 27 nM | 3920 ng·h/mL | Active | – | – | – | – | – | 0% | 60% | 30%
11 | COCCCN(c1cc(Cl)cc2[nH]c(=O)c(=O)[nH]c12)S(C)(=O)=O | – | Active | 728 nM | – | Active | 72 µg/mL (≈ 199 µM) | 0.1 | 0.01 ×10⁻⁶ cm/s | – | – | – | – | –
12 | CCOCCCN(c1c(Cl)c(Cl)cc2[nH]c(=O)c(=O)[nH]c12)S(C)(=O)=O | 33% | Active | 19 nM | 1270 ng·h/mL | Active | 82 µg/mL (≈ 200 µM) | 28.4 | 0.44 ×10⁻⁶ cm/s | – | – | – | – | –

Second part, led by results:

Row | bioavailability [1] | Activity (Liver microsomes [2]) | IC50 [3] | AUC [5] | Activity (Liver microsomes [6]) | solubility [7] | Ratio (Caco-2) | Papp A→B [8] | F (Rattus norvegicus [11]) | Compound | Activity (Rattus norvegicus [4]) | Activity (Rattus norvegicus [9]) | Activity (Rattus norvegicus [10]) | Activity (Rattus norvegicus [12])
13 | 7% | Active | 2 nM | 1500 ng·h/mL | Active | – | – | – | – | Cc1c(Cl)cc2[nH]c(=O)c(=O)[nH]c2c1N(CC(=O)O)S(C)(=O)=O | 87.5% | – | – | –
14 | 1% | Active | 40 nM | 680 ng·h/mL | Active | 76 µg/mL (≈ 199 µM) | – | – | – | CC(O)CN(c1c(Cl)c(Cl)cc2[nH]c(=O)c(=O)[nH]c12)S(C)(=O)=O (stereo unspecified) | – | – | – | –
15 | 5% | Active | 1 nM | 155 ng·h/mL | Active | 72 µg/mL (≈ 199 µM) | – | – | – | Cc1cc2[nH]c(=O)c(=O)[nH]c2c(N(CC(=O)O)S(C)(=O)=O)c1Cl | 62.5% | – | – | –
16 | 33% | Active | 38 nM | 1080 ng·h/mL | Active | 76 µg/mL (≈ 199 µM) | – | 0.01 ×10⁻⁶ cm/s | – | COCCN(c1c(Cl)c(Cl)cc2[nH]c(=O)c(=O)[nH]c12)S(C)(=O)=O | – | – | – | –
17 | 57% | Active | 77 nM | 1190 ng·h/mL | Active | 72 µg/mL (≈ 199 µM) | 30.6 | 0.14 ×10⁻⁶ cm/s | – | COCCN(c1c(Cl)c(C)cc2[nH]c(=O)c(=O)[nH]c12)S(C)(=O)=O | – | – | – | –
18 | 100% | Active | 74 nM | 2620 ng·h/mL | Active | 72 µg/mL (≈ 199 µM) | – | 0.01 ×10⁻⁶ cm/s | – | COCCN(c1c(C)c(Cl)cc2[nH]c(=O)c(=O)[nH]c12)S(C)(=O)=O | – | – | – | –
19 | 1% | Active | 41 nM | 136 ng·h/mL | Active | 76 µg/mL (≈ 199 µM) | – | – | – | CS(=O)(=O)N(CCCO)c1c(Cl)c(Cl)cc2[nH]c(=O)c(=O)[nH]c12 | – | – | – | –
20 | 1% | Active | 58 nM | 183 ng·h/mL | Active | 72 µg/mL (≈ 199 µM) | – | – | – | CCc1c(Cl)cc2[nH]c(=O)c(=O)[nH]c2c1N(CCO)S(C)(=O)=O | 0% | – | – | –
21 | – | Active | 2 nM | 393 ng·h/mL | Active | 76 µg/mL (≈ 199 µM) | – | – | – | CS(=O)(=O)N(CC(=O)O)c1c(Cl)c(Cl)cc2[nH]c(=O)c(=O)[nH]c12 | 100% | – | – | –
22 | 4% | Active | 14 nM | 605 ng·h/mL | Active | 70 µg/mL (≈ 201 µM) | – | – | – | Cc1c(Cl)cc2[nH]c(=O)c(=O)[nH]c2c1N(CCO)S(C)(=O)=O | 0% | – | – | –
23 | 9% | Active | 4 nM | 791 ng·h/mL | Active | 70 µg/mL (≈ 201 µM) | – | – | – | Cc1cc2[nH]c(=O)c(=O)[nH]c2c(N(CCO)S(C)(=O)=O)c1Cl | 0% | – | – | –
